Laboratory results: patent publication US10137210B2, “Thioflavin derivatives for use in antemortem diagnosis of Alzheimer's disease and in vivo imaging and prevention of amyloid deposition” (UNIVERSITY OF PITTSBURGH—OF THE COMMONWEALTH SYSTEM OF …, priority 2000, dated 2018)
Entries after “also recorded” stand apart in the source; their conditions may differ. Like-named read-outs stand apart in the source and are kept apart here. Blank lines part the entries; values can stand above or below the compound they belong to.

What was measured:
[1] = In vivo brain uptake and retention in mice; set-up: species or system mouse; details: for Mouse Brain Uptake @ 2 min / Mouse Brain Uptake @ 30 min: 11C-labeled compound; for 2 min (% ID/g): brain uptake at 2 min; for 2 min (% ID/g) / 30 min (% ID/g): Table 1 lower part; for 30 min (% ID/g): brain uptake at 30 min
Description: In Table 1 below are five different ^11C-labeled BTA derivatives where their in vitro binding properties, log P values, and in vivo brain uptake and retention properties in mice have been determined.

synthetic Aβ(1-40) = synthetic Aβ(1-40) (Homo sapiens (Human), UniProt P05067); assay: Competitive binding with [3H]CG and synthetic Aβ(1-40)
[2] = Partitioning between octanol and phosphate-buffered saline (logP)
[3] = system: plaques and tangles in post-mortem AD brain; assay: Preliminary tissue staining of post-mortem AD brain with ThT and derivatives; assay type: binding, human; details: for staining detectable at low concentration of staining solution: staining solutions containing only 10 nM of the BTA compound; for staining of plaques and tangles in AD brain: post-mortem AD brain, fluorescence
Description: Thus, in the development of these compounds, tissue staining has served the dual purpose of assessing specificity of staining in AD brain tissue as well as assessing binding affinity by screening staining solutions over a range of concentrations similar to that employed in the binding assays.

Aβ(1-40) fibrils = Aβ(1-40) fibrils (Homo sapiens (Human), UniProt P05067); assay: [N-methyl-11C]BTA-1 binding assay with Aβ(1-40) fibrils
[4] = system: Aβ and tau deposits in brain homogenates; assay: [3H]BTA-1 binding to brain homogenates (AD brain and Braak stage II control brain); set-up: species or system human
Description: This control brain had frequent numbers of NFT in the entorhinal cortex (FIG. 5A), but no neuritic or diffuse plaques in any area of the brain (FIG. 11C). The NFT numbers in the EC of Cntl 04 were similar to the numbers found in many AD cases (FIG. 11B).

[5] = system: amyloid deposits in postmortem AD brain; assay: Staining of postmortem AD brain tissue sections with unlabeled BTA-1; assay type: binding, human
[6] = In vivo PET brain imaging in baboons; details: normal baboon brain, 5-15 min post injection, 3 mCi i.v.
Method: Brain imaging studies were conducted following the intravenous injection of 3-5 mCi of radiotracer. Typical attenuation- and decay-corrected time-activity curves for a frontal cortex region of interest for each of the three compounds are shown in FIG. 6. It is noted that the absolute brain uptake of these 3 compounds in baboons is very similar to that in mice (i.e., about 0.47 to 0.39%ID/g*kg). […] The rank order of maximum brain uptake and clearance rate of the three compounds were also the same in mice and baboons. […] Typical amounts of unmetabolized injectate in plasma for all three compounds were about: 90% at 2 minutes; 35% at 30 minutes; and 20% at 60 minutes.
The emission files collected 5-15 min post injection were summed to provide the images. Brain regions include: Ctx (cortex); Thl (thalamus); Occ (occipital cortex); and Cer (cerebellum).

[7] = target: amyloid deposits in PS1/APP mouse brain (Homo sapiens (Human), UniProt P05067); assay: Staining of transgenic PS1/APP mouse brain sections with unlabeled BTA-1; assay type: binding
Description: The PS1/APP mouse model combines two human gene mutations known to cause Alzheimer's disease in a doubly transgenic mouse which deposits Aβ fibrils in amyloid plaques in the brain beginning as early as 3 months of age. […] NFT have not been observed in transgenic mouse models of amyloid deposition.

[8] = target: Aβ amyloid plaques and cerebrovascular amyloid (Homo sapiens (Human), UniProt P05067); assay: In vivo labeling of amyloid deposits in PS1/APP transgenic mice, multiphoton microscopy; set-up: species or system mouse; details: 10 mg/kg ip, imaged 24 hours later, living PS1/APP mice
Description: Twenty-four hours later, multiphoton fluorescence microscopy was employed to obtain high resolution images in the brains of living mice using a cranial window technique.

[9] = Table 1, lower part, read-out: Ki
[10] = Table 1, upper part, read-out: Ki (nM) to Aβ fibrils
[11] = competition for Aβ sites, FIG. 5 right panel, read-out: Ki

Sequence of synthetic Aβ(1-40) (P05067 672-711): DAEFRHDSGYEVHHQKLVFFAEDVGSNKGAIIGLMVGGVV
Sequence of Aβ(1-40) fibrils (P05067 672-711): as above
Sequence of amyloid deposits in PS1/APP mouse brain (P05067 672-713): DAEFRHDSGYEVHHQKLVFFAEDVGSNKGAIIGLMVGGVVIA
Sequence of Aβ amyloid plaques and cerebrovascular amyloid (P05067 672-713): as above

logP (physchem): 3.9
Mouse Brain Uptake @ 2 min [1]: 0.15 ± 0.06 % ID/g * kg
Mouse Brain Uptake @ 30 min [1]: 0.16 ± 0.02 % ID/g * kg
Ratio of 2 min/30 min Uptake Values ([1]; mouse brain): 0.9
Compound: Cc1ccc2nc(-c3ccc(N(C)[11CH3])cc3)sc2c1

competition with [3H]CG for binding sites on Aβ(1-40) (synthetic Aβ(1-40)): competed
Compound: Thioflavin S [ThS]

Mouse Brain Uptake @ 2 min [1]: 0.32 ± 0.07 % ID/g * kg
Mouse Brain Uptake @ 30 min [1]: 0.17 ± 0.05 % ID/g * kg
logP [2]: 3.3
Compound: Cc1ccc2nc(-c3ccc(N[11CH3])cc3)sc2c1

Compound: CNc1ccc(-c2nc3ccc(C)cc3s2)cc1 [6-Me-BTA-1]
staining detectable at low concentration of staining solution [3]: could still be detected

logP (physchem): 3.17
Ki (Aβ(1-40) fibrils; [9]): 8.32 nM
2:30 min ratio ([1]; Table 1, lower part): 2.7
2 min (% ID/g) [1]: 9.08 % ID/g
30 min (% ID/g) [1]: 3.4 % ID/g
Compound: Nc1ccc(-c2nc3ccccc3s2)cc1[125I]

logP (physchem): 2.7
Ki (Aβ(1-40) fibrils; [10]): 5.7 nM
Mouse Brain Uptake @ 2 min [1]: 0.43 ± 0.11 % ID/g * kg
Mouse Brain Uptake @ 30 min [1]: 0.094 ± 0.038 % ID/g * kg
Ratio of 2 min/30 min Uptake Values ([1]; mouse brain): 4.6
Compound: COc1ccc2nc(-c3ccc(N[11CH3])cc3)sc2c1

Compound: Cc1ccc2nc(-c3ccc(N)cc3)sc2c1 [6-Me-BTA-0, 2-(4′-aminophenyl)-6-methyl-benzothiazole]
staining of plaques and tangles in AD brain [3]: stain plaques and tangles
staining detectable at low concentration of staining solution [3]: could still be detected

Ki (Aβ(1-40) fibrils; [11]): 3 ± 0.8 nM
Compound: CN(C)c1ccc(-c2nc3ccccc3s2)cc1 [BTA-2, 2-(4-dimethylaminophenyl)benzothiazole]

logP (physchem): 1.65
Ki (Aβ(1-40) fibrils; [9]): 11.1 nM
2 min (% ID/g) [1]: 5.64 % ID/g
30 min (% ID/g) [1]: 0.36 % ID/g
Compound: Nc1ccc(-c2nc3ccc(O)cc3s2)cc1[125I]

binding in cerebellum and entorhinal cortex ([4]; Braak VI AD brain): low binding
binding in frontal gray versus cerebellum and entorhinal cortex ([4]; Braak VI AD brain): over ten-fold higher levels
binding in NFT-rich entorhinal cortex versus cerebellum and frontal gray ([4]; Braak stage II control brain (Cntl 04)): no greater than
specific binding (Aβ(1-40) fibrils; 200 nM Aβ(1-40) fibrils): ~70%
staining of amyloid plaques ([7]; 8 month old PS1/APP mouse brain tissue): clearly visible
staining of cerebrovascular amyloid ([7]; FIG. 8, right): brightly stained
Compound: CNc1ccc(-c2nc3ccccc3s2)cc1 [BTA-1, 2-(4-Methylaminophenyl)benzothiazole]
staining of neurofibrillary tangles (NFT) ([5]; AD brain, FIG. 8, left): more faintly stained
staining of amyloid plaques ([5]; postmortem AD brain tissue): clearly visible
distribution of radioactivity in brain (PET) [6]: uniform distribution of radioactivity throughout the brain
in vivo labeling of plaques and cerebrovascular amyloid [8]: plaques and cerebrovascular amyloid are clearly distinguishable

log of the partition coefficient, logPoct ([2]; octanol / phosphate-buffered saline): 0.57
Compound: Cc1ccc2c(c1)sc(-c1ccc(N(C)C)cc1)[n+]2C.[Cl-] [ThT, Thioflavin T, reference compound]
staining of plaques and tangles in AD brain [3]: weakly stains plaques
competition with [3H]CG for binding sites on Aβ(1-40) (synthetic Aβ(1-40)): lack of competition; also recorded: did not

Compound: Cc1ccc2nc(-c3ccc(N(C)C)cc3)sc2c1 [6-Me-BTA-2, 2-(4′-dimethylaminophenyl)-6-methyl-benzothiazole]
staining of plaques and tangles in AD brain [3]: stain plaques and tangles

logP (physchem): 2.7
Mouse Brain Uptake @ 2 min [1]: 0.44 ± 0.14 % ID/g * kg
Mouse Brain Uptake @ 30 min [1]: 0.057 ± 0.010 % ID/g * kg
Compound: [11CH3]Nc1ccc(-c2nc3ccccc3s2)cc1

Ki (Aβ(1-40) fibrils; [11]): 100 ± 16 nM
Compound: Nc1ccc(-c2nc3ccccc3s2)cc1 [BTA-0, 2-(4-Aminophenyl)benzothiazole]

Compound: c1ccc(-c2nc3ccccc3s2)cc1 [BTP, 2-phenylbenzothiazole, reference compound]
staining of plaques and tangles in AD brain [3]: does not appear to stain plaques

brain clearance ([1]; mouse brain): poor brain clearance
Compound: COc1ccc2nc(-c3ccc(N)cc3)sc2c1 [6-MeO-BTA-0, 6-Methoxy-2-(4-aminophenyl)benzothiazole]

logP (physchem): 3.3
Ki (Aβ(1-40) fibrils; [10]): 2.3 nM
Mouse Brain Uptake @ 2 min [1]: 0.32 ± 0.09 % ID/g * kg
Mouse Brain Uptake @ 30 min [1]: 0.42 ± 0.10 % ID/g * kg
Ratio of 2 min/30 min Uptake Values ([1]; mouse brain): 0.8
Compound: COc1ccc2nc(-c3ccc(N(C)[11CH3])cc3)sc2c1
